Each structure is given as a SMILES string. Where only a bound is given, the exact number is not on record here.

T1 sequence (O14842 whole entry): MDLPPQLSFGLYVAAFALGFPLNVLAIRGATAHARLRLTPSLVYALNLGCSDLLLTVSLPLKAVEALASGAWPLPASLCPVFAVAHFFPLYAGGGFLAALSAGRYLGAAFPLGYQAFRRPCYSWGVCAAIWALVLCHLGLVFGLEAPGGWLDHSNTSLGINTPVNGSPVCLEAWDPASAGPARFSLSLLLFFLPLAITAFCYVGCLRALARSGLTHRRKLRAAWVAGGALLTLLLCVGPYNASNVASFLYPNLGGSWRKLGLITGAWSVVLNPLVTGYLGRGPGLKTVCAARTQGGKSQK

The test has as its target T1, GPR40 of human origin (Homo sapiens, UniProt O14842).
T1 construct: expressed in transfected cells
The experiment in a line: Agonist action on GPR40 of human origin (intracellular Ca2+ change). The test is classed as cell-based. Particulars: CHO cell strain stably expressing GPR40 of human origin; change in Ca2+ concentration, fluorescent calcium indicator. The method, boiled down: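 CHO cells stably expressing human GPR40, cultured overnight, then loaded 1 h with Calcium 4 dye plus probenecid in HEPES-buffered HBSS. Compound added in 20 mM HEPES-HBSS; intracellular Ca2+ change read by fluorescence, EC50 from dose-response of fluorescence change.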
`Cc1ccc(Oc2cccc3c2CC[C@H]3Oc2ccc(-c3cc(O)n[s+]3[O-])cc2)cc1` (stereo partly drawn) [Example 93, 3-hydroxy-5-(4-(((R)-4-(p-tolyloxy)-2,3-dihydro-1H-inden-1-yl)oxy)phenyl)isothiazole 1-oxide]: the 50% effective concentration (EC50) (as a rule, the concentration at which the effect is half-maximal) is less than 300 nM.
To `COc1ccc(OC)c(-c2cccc3c2CC[C@H]3Oc2ccc(-c3cc(O)n[s+]3[O-])cc2)c1` (stereo partly drawn) [Example 54, 5-(4-(((R)-4-(2,5-dimethoxyphenyl)-2,3-dihydro-1H-inden-1-yl)oxy)phenyl)-3-hydroxyisothiazole 1-oxide] belongs less than 300 nM; to `[O-][s+]1nc(O)cc1-c1ccc(O[C@@H]2CCc3c(Oc4cccc(C(F)(F)F)c4)cccc32)cc1` (stereo partly drawn) [Example 84, 3-hydroxy-5-(4-(((R)-4-(3-(trifluoromethyl)phenoxy)-2,3-dihydro-1H-inden-1-yl)oxy)phenyl)isothiazole 1-oxide], less than 300 nM; to `[O-][s+]1nc(O)cc1-c1ccc(O[C@@H]2CCc3c(Oc4ccc(C(F)(F)F)cc4)cccc32)cc1` (stereo partly drawn) [Example 87, 3-hydroxy-5-(4-(((R)-4-(4-(trifluoromethyl)phenoxy)-2,3-dihydro-1H-inden-1-yl)oxy)phenyl)isothiazole 1-oxide], less than 300 nM.
On to `CN1CC2(CCN(Cc3ccc(COc4ccc(-c5cc(O)n[s+]5[O-])cc4)cc3)CC2)c2ccccc21` (stereo not drawn) [Example 124, 3-hydroxy-5-(4-((4-((1-methylspiro[indolin-3,4′-piperidin]-1′-yl)methyl)benzyl)oxy)phenyl)isothiazole 1-oxide], for which the half-maximal effective concentration (EC50) lay in the range of 300 to 3000 nM.
As for `[O-][s+]1nc(O)cc1-c1ccc(O[C@@H]2CCc3c(-c4ccc(Cl)cc4F)cccc32)cc1` (stereo partly drawn) [Example 16, 5-(4-(((R)-4-(4-chloro-2-fluorophenyl)-2,3-dihydro-1H-inden-1-yl)oxy)phenyl)-3-hydroxyisothiazole 1-oxide], the EC50 was in the range of 300 to 3000 nM.
The value for `CNC(=O)c1ccc(Oc2cccc3c2CC[C@H]3Oc2ccc(-c3cc(O)n[s+]3[O-])cc2)cc1` (stereo partly drawn) [Example 136, 4-(((1R)-1-(4-(3-hydroxy-1-oxidoisothiazol-5-yl)phenoxy)-2,3-dihydro-1H-inden-4-yl)oxy)-N-methylbenzamide] was less than 300 nM; that for `Cc1cc(Oc2cccc3c2CC[C@H]3Oc2ccc(-c3cc(O)n[s+]3[O-])cc2)ccn1` (stereo partly drawn) [Example 135, 3-hydroxy-5-(4-(((R)-4-((2-methylpyridin-4-yl)oxy)-2,3-dihydro-1H-inden-1-yl)oxy)phenyl)isothiazole 1-oxide] was less than 300 nM.
Consider `COc1ccc(Cl)c(-c2cccc3c2CC[C@H]3Oc2ccc(-c3cc(O)n[s+]3[O-])cc2)c1` (stereo partly drawn) [Example 52, 5-(4-(((R)-4-(2-chloro-5-methoxyphenyl)-2,3-dihydro-1H-inden-1-yl)oxy)phenyl)-3-hydroxyisothiazole 1-oxide], for which the concentration giving a half-maximal response (EC50) was less than 300 nM.
The value for `[O-][s+]1nc(O)cc1-c1ccc(O[C@@H]2CCc3c(-c4ccccc4OCc4ccccc4)cccc32)cc1` (stereo partly drawn) [Example 42, 5-(4-(((R)-4-(2-benzyloxyphenyl)-2,3-dihydro-1H-inden-1-yl)oxy)phenyl)-3-hydroxyisothiazole 1-oxide] was less than 300 nM.
Regarding `COc1cccc(Oc2cccc3c2CC[C@H]3Oc2ccc(-c3cc(O)n[s+]3[O-])cc2)n1` (stereo partly drawn) [Example 149, 3-hydroxy-5-(4-(((R)-4-((6-methoxypyridin-2-yl)oxy)-2,3-dihydro-1H-inden-1-yl)oxy)phenyl)isothiazole 1-oxide], the half-maximal effective concentration (EC50) was less than 300 nM.
To `COc1ccc(Oc2cccc3c2CC[C@H]3Oc2ccc(-c3cc(O)n[s+]3[O-])cc2)cn1` (stereo partly drawn) [Example 100, 3-hydroxy-5-(4-(((R)-4-((6-methoxypyridin-3-yl)oxy)-2,3-dihydro-1H-inden-1-yl)oxy)phenyl)isothiazole 1-oxide] belongs less than 300 nM.
To `CC(C)c1ccc(-c2cccc3c2CC[C@H]3Oc2ccc(-c3cc(O)n[s+]3[O-])cc2)cc1` (single isomer, unassigned) [Example 26] belongs 300 to 3000 nM.
To `[O-][s+]1nc(O)cc1-c1ccc(O[C@@H]2CCc3c(Oc4ccc(N5CCOCC5)nc4)cccc32)cc1` (stereo partly drawn) [Example 109, 3-hydroxy-5-(4-(((R)-4-((6-morpholinopyridin-3-yl)oxy)-2,3-dihydro-1H-inden-1-yl)oxy)phenyl)isothiazole 1-oxide] belongs less than 300 nM; to `[O-][s+]1nc(O)cc1-c1ccc(O[C@@H]2CCc3c(-c4ccccc4C(F)(F)F)cccc32)cc1` (stereo partly drawn) [Example 64, 5-(4-(((R)-4-(2-trifluoromethylphenyl)-2,3-dihydro-1H-inden-1-yl)oxy)phenyl)-3-hydroxyisothiazole 1-oxide], less than 300 nM.
For `N#Cc1ccc(Oc2cccc3c2CC[C@H]3Oc2ccc(-c3cc(O)n[s+]3[O-])cc2)nc1` (stereo partly drawn) [Example 118, 6-(((1R)-1-(4-(3-hydroxy-1-oxidoisothiazol-5-yl)phenoxy)-2,3-dihydro-1H-inden-4-yl)oxy)nicotinonitrile], the EC50 is less than 300 nM.
To `Cc1cccc(C)c1Oc1cccc2c1CC[C@H]2Oc1ccc(-c2cc(O)n[s+]2[O-])cc1` (stereo partly drawn) [Example 96, 5-(4-(((R)-4-(2,6-dimethylphenoxy)-2,3-dihydro-1H-inden-1-yl)oxy)phenyl)-3-hydroxyisothiazole 1-oxide] belongs less than 300 nM.
To `CCOCCOc1cc(C)c(Oc2cccc3c2CC[C@H]3Oc2ccc(-c3cc(O)n[s+]3[O-])cc2)c(C)c1` (stereo partly drawn) [Example 108, 5-(4-(((R)-4-(4-(2-ethoxyethoxy)-2,6-dimethylphenoxy)-2,3-dihydro-1H-inden-1-yl)oxy)phenyl)-3-hydroxyisothiazole 1-oxide] belongs less than 300 nM; to `COc1ccc(Cl)cc1-c1cccc2c1CC[C@H]2Oc1ccc(-c2cc(O)n[s+]2[O-])cc1` (stereo partly drawn) [Example 55, 5-(4-(((R)-4-(5-chloro-2-methoxyphenyl)-2,3-dihydro-1H-inden-1-yl)oxy)phenyl)-3-hydroxyisothiazole 1-oxide], 300 to 3000 nM.
As for `CCc1ccccc1-c1cccc2c1CC[C@H]2Oc1ccc(-c2cc(O)n[s+]2[O-])cc1` (stereo partly drawn) [Example 9, 5-(4-(((R)-4-(2-ethylphenyl)-2,3-dihydro-1H-inden-1-yl)oxy)phenyl)-3-hydroxyisothiazole 1-oxide], the EC50 is less than 300 nM.
The value for `COc1cc(C)c(Oc2cccc3c2CC[C@H]3Oc2ccc(-c3cc(O)n[s+]3[O-])cc2)cn1` (stereo partly drawn) [Example 105, 3-hydroxy-5-(4-(((R)-4-((6-methoxy-4-methylpyridin-3-yl)oxy)-2,3-dihydro-1H-inden-1-yl)oxy)phenyl)isothiazole 1-oxide] was less than 300 nM; that for `Cc1nc(OCCC(C)(C)O)ccc1Oc1cccc2c1CC[C@H]2Oc1ccc(-c2cc(O)n[s+]2[O-])cc1` (stereo partly drawn) [Example 101, 3-hydroxy-5-(4-(((R)-4-((6-(3-hydroxy-3-methylbutoxy)-2-methylpyridin-3-yl)oxy)-2,3-dihydro-1H-inden-1-yl)oxy)phenyl)isothiazole 1-oxide] was less than 300 nM; that for `Cc1ccc(Cl)c(-c2cccc3c2CC[C@H]3Oc2ccc(-c3cc(O)n[s+]3[O-])cc2)c1` (single isomer, unassigned) [Example 15] was less than 300 nM.
The value for `N#Cc1ccc(Oc2cccc(COc3ccc(-c4cc(O)n[s+]4[O-])cc3)c2)cc1` (stereo not drawn) [Example 125, 4-(3-((4-(3-hydroxy-1-oxidoisothiazol-5-yl)phenoxy)methyl)phenoxy)benzonitrile] was less than 300 nM.
The value for `Cc1cccc(Oc2cccc3c2CC[C@H]3Oc2ccc(-c3cc(O)n[s+]3[O-])cc2)c1` (stereo partly drawn) [Example 94, 3-hydroxy-5-(4-(((R)-4-(m-tolyloxy)-2,3-dihydro-1H-inden-1-yl)oxy)phenyl)isothiazole 1-oxide] was less than 300 nM.
As for `Cc1ccc(-c2cccc3c2CC[C@H]3Oc2ccc(-c3cc(O)n[s+]3[O-])cc2)cn1` (stereo partly drawn) [Example 71, 5-(4-(((R)-4-(6-methylpyridin-3-yl)-2,3-dihydro-1H-inden-1-yl)oxy)phenyl)-3-hydroxyisothiazole 1-oxide], the half-maximal effective concentration (EC50) was less than 300 nM.
In the case of `[O-][s+]1nc(O)cc1-c1ccc(O[C@@H]2CCc3c(-c4cc(F)ccc4C(F)(F)F)cccc32)cc1` (stereo partly drawn) [Example 66, 5-(4-(((R)-4-(5-fluoro-2-trifluoromethylphenyl)-2,3-dihydro-1H-inden-1-yl)oxy)phenyl)-3-hydroxyisothiazole 1-oxide], the EC50 was less than 300 nM.
For the molecule `Cc1ccnc(Oc2cccc3c2CC[C@H]3Oc2ccc(-c3cc(O)n[s+]3[O-])cc2)c1` (stereo partly drawn) [Example 133, 3-hydroxy-5-(4-(((R)-4-((4-methylpyridin-2-yl)oxy)-2,3-dihydro-1H-inden-1-yl)oxy)phenyl)isothiazole 1-oxide], the EC50 was less than 300 nM.
Take `Cc1ccc(-c2cccc3c2CC[C@H]3Oc2ccc(-c3cc(O)n[s+]3[O-])cc2)c(C)c1` (stereo partly drawn) [Example 36, 5-(4-(((R)-4-(2,4-dimethylphenyl)-2,3-dihydro-1H-inden-1-yl)oxy)phenyl)-3-hydroxyisothiazole 1-oxide]: the 50% effective concentration (EC50) was less than 300 nM.
To `Cc1cc(OCCCS(C)(=O)=O)cc(C)c1-c1cccc(CNc2ccc(-c3cc(O)n[s+]3[O-])cc2)c1` (stereo not drawn) [Example 2, 5-(4-(((2′,6′-dimethyl-4′-(3-(methylsulfonyl)propoxy)-[1,1′-biphenyl]-3-yl)methyl)amino)phenyl)-3-hydroxyisothiazole 1-oxide] belongs less than 300 nM; to `[O-][s+]1nc(O)cc1-c1cccc(OCCc2cccc(Oc3ccccc3)c2)c1` (stereo not drawn) [Example 163, 3-hydroxy-5-(3-(3-phenoxyphenethoxy)phenyl)isothiazole 1-oxide], 300 to 3000 nM; to `COc1cc(F)ccc1-c1cccc2c1CC[C@H]2Oc1ccc(-c2cc(O)n[s+]2[O-])cc1` (stereo partly drawn) [Example 51, 5-(4-(((R)-4-(4-fluoro-2-methoxyphenyl)-2,3-dihydro-1H-inden-1-yl)oxy)phenyl)-3-hydroxyisothiazole 1-oxide], less than 300 nM.
In the case of `Cc1cncc(-c2cccc3c2CC[C@H]3Oc2ccc(-c3cc(O)n[s+]3[O-])cc2)c1` (stereo partly drawn) [Example 72, 5-(4-(((R)-4-(5-methylpyridin-3-yl)-2,3-dihydro-1H-inden-1-yl)oxy)phenyl)-3-hydroxyisothiazole 1-oxide], the EC50 was less than 300 nM.

Source of the values: patent US8629102B2, “3-hydroxyisothiazole 1-oxide derivatives” (Mochida Pharmaceutical Co., Ltd., priority 2011, dated 2014).
